Three compounds from paper PMC10011747, “Targeting androgen receptor and the variants by an orally bioavailable Proteolysis Targeting Chimeras compound in castration resistant prostate cancer” (eBioMedicine, 2023) can be followed below.

Each structure is given as a SMILES string. Like-named read-outs stand apart in the source and are kept apart here.

As usually defined, the IC50 is the midpoint of a concentration-inhibition curve. By clearance is commonly meant the rate of elimination divided by the concentration. What is called Cmax is the maximum level reached in the sampled fluid or tissue. What is called Tmax is the time at which the peak concentration occurs. The bioavailability is dose-corrected exposure relative to a reference, in per cent. Broadly, the AUC(0-t) is exposure summed from dosing to a finite time, without extrapolation to infinity. Read a high AUC(0-t) as more exposure.

Data set [1] concerns the target T1, AR NTD (221–320) (Homo sapiens, UniProt P10275).
T1 construct: GST tagged AR-NTD protein (221–320) (Abcam ab157902); purchased Abcam ab157902; host or cells: wheat germ (datasheet)
T1 sequence (P10275 221-320): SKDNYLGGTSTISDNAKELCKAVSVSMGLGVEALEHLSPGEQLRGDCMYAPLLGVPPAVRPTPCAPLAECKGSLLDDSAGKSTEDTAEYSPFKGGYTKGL
In words: Affinity selection mass spectrometer (ASMS) binding assay. Conditions: 100 nM compound with 100 nM GST-AR-NTD, 1 h 37 °C; percentage of input compound recovered. Here is the method: Affinity selection mass spectrometer (ASMS)[40] binding assay was employed for the screen and relative binding affinity assessment of AR NTD binding compounds. Briefly, GST tagged AR-NTD protein (221–320) (Abcam ab157902) at final concentration of 100 nM was incubated with 100 nM of individual candidate compounds in PBS for 1 h at 37 °C. The protein-compound mixture was filtered through 10K MWCO pore sized Nanosep centrifugal column (PALL Life science) with thorough wash steps to separate protein-bound and unbound compounds. The protein-bound compounds were subsequently extracted and analyzed by ABSCIEX 4000 QTRAP LC-ESI MS/MS (AB Sciex, Framingham, MA) coupled to an Agilent 1200 HPLC system. A Waters S XBridge RP18, 3.5 μm, 4.6 × 20 mm column was used as the stationary phase (Waters Corporation, Milford, MA, USA). Gradient elution was carried out using water with 0.1% formic acid (solvent A) and acetonitrile with 0.1% formic acid (solvent B) as a mobile phase. Positive ion polarity scanning was used in electrospray (ESI) mass-triggered fraction collection to monitor the target mass. Quantification of protein-bound compounds was determined against calibration curves established with drug standards. For relative binding affinity assessment, same procedure and condition was carried out for each compound without target protein incubated in the reaction as background controls. Relative binding affinity was calculated as percentage of input compound quantity after background value subtraction.

Data set [2] relates to CWR22Rv1 cells. In words: alamarBlue cell viability, CWR22Rv1. It counts as cell-based. Conditions: Homo sapiens, CWR22Rv1, 168 h; 7 days treatment, normal hormone condition. Here is the method:
(§1) Cells were seeded in triplicate in 96-well plates 1 day prior to drug treatment for all assays. For viability test and IC50 assessment, the alamarBlue™ Cell Viability Reagent (Thermo Fisher Scientific) was added to cells 7 days after PROTAC treatment, followed by fluorescence detection as the manufacturer instructed. The IC50 was calculated by dose-inhibition regression. For proliferation monitoring, 2, 4, 6 and 8 days after PROTAC treatment (day 0), viable cells were detected by MTT Cell Proliferation Kit I (Sigma–Aldrich) according to the manufacturer's instructions. Cellular caspase activity was measured by Caspase-Glo 3/7 Assay System (Promega) 1 or 2 days after the drug treatment.
(Resazurin is reduced to fluorescent resorufin, in cell work by metabolically active cells.)

Data set [3] in a line: Pharmacokinetic analysis in BALB/c mice. It is filed as in vivo, mouse. Conditions: for clearance: read-out: plasma clearance rate; for bioavailability: read-out: BA (bioavailability). The protocol:
Six to eight-week-old male BALB/c (BALB/cAnNCrlBltw) mice weighing between 22 and 30 g were purchased from BioLASCO Taiwan Co., Ilan, Taiwan. In vivo PK analysis of the PROTAC compounds was performed with 2 mg/kg for intravenous injection (IV, n = 2), 10 mg/kg for intraperitoneal injection (IP, n = 3), and 10 or 30 mg/kg for oral (PO, n = 3) dosing route. Blood samples from the mice were collected using Microvette® CB 300 EDTA blood collection tubes by a lancet at 0.167 h (IV only), 0.5, 1, 2, 4, 7 and 24 h time points. The plasma was then subjected to LC-MS analysis to quantitate the drug concentration against calibration curves that were established with drug standards prepared in mice plasma.

In data set [4] the test system is VCaP cells. In words: alamarBlue cell viability, VCaP. As to conditions: Homo sapiens, 168 h, 7 days treatment, normal hormone condition. It counts as cell-based. The protocol:
as §1

Data set [5] deals with LNCaP, CWR22Rv1 and VCaP cells. As to the kind of experiment: alamarBlue cell viability, all three cell lines. It is filed as cell-based. As to conditions: Homo sapiens, 168 h; 7 days treatment; read-out: IC50 cell viability, range in all three cell lines. Here is the method:
as §1

The mark [6] stands for this setting: male, BALB/c, mouse, plasma, intravenous, 2 mg/kg.
Where [7] appears, read: male, BALB/c, mouse, plasma, IP, 10 mg/kg.
[8] abbreviates: male, BALB/c, mouse, plasma, PO, 30 mg/kg.
Where [9] appears, read: male, BALB/c, mouse, plasma, ip, 10 mg/kg, 0-24 h.
[10] abbreviates: male, BALB/c, mouse, plasma, ip, 10 mg/kg, IP, 10 mg/kg, read-out: Cmax.
The mark [11] stands for this setting: male, BALB/c, mouse, plasma, PO, 10 mg/kg.

Take `Cc1ncsc1-c1ccc(CNC(=O)[C@@H]2C[C@H](O)CN2C(=O)[C@@H](NC(=O)COCCCCCCOc2ccc(C3CCN(C4=Nn5c(nnc5C(F)(F)F)CC4)CC3)cc2)C(C)(C)C)cc1` [ITRI-125, (2S,4S)-1-((S)-3,3-dimethyl-2-(2-(6-(4-(1-(3-(trifluoromethyl)-7,8-dihydro-[1,2,4]triazolo[4,3-b]pyridazin-6-yl)piperidin-4-yl)phenoxy)hexyloxy)acetamido)butanoyl)-4-hydroxy-N-(4-(4-methylthiazol-5-yl)benzyl)pyrrolidine-2-carboxamide]: the “ASMS relative binding (%)” value in data set [1] was determined as 13.6%. In addition, the half-maximal inhibitory concentration (IC50) in data set [2] was 6.92 ± 6.23 µM; in data set [4], 3.06 ± 0.936 µM; in data set [5] it was 3 to 6 µM. In data set [3] (intravenous, 2 mg/kg), this compound had an AUC/Dose of 2839.9 ± 36.7 ng·h/mL. In addition, the clearance in data set [3] (setting [6]) was determined as 5.68 mL/min/kg.

Regarding `Cc1ncsc1-c1ccc(CNC(=O)[C@@H]2C[C@H](O)CN2C(=O)[C@@H](NC(=O)COCCCCOc2ccc(C3CCN(C4=Nn5c(nnc5C(F)(F)F)CC4)CC3)cc2)C(C)(C)C)cc1` [ITRI-90, (2S,4S)-1-((S)-3,3-dimethyl-2-(2-(4-(4-(1-(3-(trifluoromethyl)-7,8-dihydro-[1,2,4]triazolo[4,3-b]pyridazin-6-yl)piperidin-4-yl)phenoxy)butoxy)acetamido)butanoyl)-4-hydroxy-N-(4-(4-methylthiazol-5-yl)benzyl)pyrrolidine-2-carboxamide], the “ASMS relative binding (%)” value in data set [1] came to 15.9%. In addition, the IC50 in data set [2] was 4.13 ± 1.93 µM; in data set [4], 5.45 ± 1.74 µM; in data set [5] it was 3 to 6 µM. For the same compound, the Cmax was found to be 7056.67 ± 2594.81 ng/mL in data set [3] (PO, 30 mg/kg); 3940 ± 1140 ng/mL in data set [3] (setting [10]); 7060 ng/mL in data set [3] (male, BALB/c, mouse, plasma, po, 30 mg/kg, PO, 30 mg/kg, read-out: Cmax). The AUC/Dose in data set [3] (PO, 30 mg/kg, 0-24 h) is 600.13 ± 263.33 h⋅kg⋅ng/mL/mg. For the same compound, the time to peak (Tmax) came out at 1.5 ± 0.7 h in data set [3] (setting [7]) and 1.67 ± 0.58 h in data set [3] (setting [8]). For the same compound, the bioavailability in data set [3] (setting [8]) came to 23%. The clearance in data set [3] (setting [6]) worked out at 6.62 mL/min/kg. Further, the exposure AUC(0-t) was 25500 ± 13600 ng·h/mL in data set [3] (setting [9]) and 18000 ng·h/mL in data set [3] (male, BALB/c, mouse, plasma, po, 30 mg/kg, 0-24 h).

Regarding `O=C1CCC(N2Cc3c(NC(=O)COCCCCOc4ccc(C5CCN(C6=Nn7c(nnc7C(F)(F)F)CC6)CC5)cc4)cccc3C2=O)C(=O)N1` (stereo not shown) [ITRI-126, N-(2-(2,6-dioxopiperidin-3-yl)-1-oxoisoindolin-4-yl)-2-(4-(4-(1-(3-(trifluoromethyl)-7,8-dihydro-[1,2,4]triazolo[4,3-b]pyridazin-6-yl)piperidin-4-yl)phenoxy)butoxy)acetamide], the “ASMS relative binding (%)” value in data set [1] was found to be 20%. Besides, the half-inhibitory concentration (IC50) in data set [2] is 0.071 ± 0.017 µM; in data set [4], 0.448 ± 0.154 µM; in data set [5], 0.07 to 0.4 µM. Besides, the AUC/Dose in data set [3] (IP, 10 mg/kg, 0-24 h) is reported as 234.2 ± 26.3 h⋅kg⋅ng/mL/mg; in data set [3] (PO, 10 mg/kg, 0-24 h) it was 20.4 ± 8.6 h⋅kg⋅ng/mL/mg. Besides, the Tmax amounted to 1.5 ± 0.5 h in data set [3] (setting [7]) and 0.7 ± 0.2 h in data set [3] (setting [11]). Further, the bioavailability in data set [3] (setting [11]) is 4.6 ± 1.9%. Further, the clearance in data set [3] (setting [6]) is 24.7 mL/min/kg. For the same compound, the area under the curve AUC(0-t) in data set [3] (setting [9]) amounted to 2340 ± 263 ng·h/mL; in data set [3] (male, BALB/c, mouse, plasma, po, 10 mg/kg, 0-24 h) it was 204 ± 85.9 ng·h/mL. For the same compound, the highest concentration (Cmax) in data set [3] (setting [10]) came out at 706 ± 222 ng/mL; in data set [3] (male, BALB/c, mouse, plasma, po, 10 mg/kg, PO, 10 mg/kg, read-out: Cmax), 95.7 ± 47.1 ng/mL.
